Results: patent US20100267561A1, “HERBICIDAL PYRIDAZINONE DERIVATIVES” (priority 2007, published 2010)

Legend:
Type in all cases: in vivo
[1] = tested on: blackgrass (Alopecurus myosuroides); assay: Test B pre-/postemergence plant response; conditions: for Blackgrass plant response rating: 8 g ai/ha, postemergence, 0-100 scale; for Plant response rating, Blackgrass: Postemergence
Method in brief: (§1)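 Visual scoring from 0 (no effect) to 100 (complete control) against untreated controls was done 13 to 15 days after greenhouse treatment. Chemicals were formulated in a surfactant-containing non-phytotoxic solvent and applied to soil preemergence or to 1- to 4-leaf (2-18 cm) plants postemergence.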

[2] = tested on: wild oat (Avena fatua); assay: Test B pre-/postemergence plant response
Method in brief: as §1

[3] = tested on: large crabgrass (Digitaria sanguinalis); assay: Test B pre-/postemergence plant response; conditions: for Crabgrass, Large plant response rating: 8 g ai/ha
Method in brief: as §1

[4] = tested on: common (oilseed) sunflower (Helianthus annuus); assay: Test B pre-/postemergence plant response; conditions: Preemergence
Method in brief: as §1

[5] = tested on: common ragweed (Ambrosia elation); assay: Test B pre-/postemergence plant response
Method in brief: as §1

[6] = tested on: downy bromegrass (Bromus tectorum); assay: Test B pre-/postemergence plant response; conditions: for Bromegrass, Downy plant response rating: 8 g ai/ha
Method in brief: as §1

[7] = tested on: morningglory (Ipomoea coccinea); assay: Test B pre-/postemergence plant response
Method in brief: as §1

[8] = tested on: johnsongrass (Sorghum halepense); assay: Test B pre-/postemergence plant response
Method in brief: as §1

[9] = tested on: Italian ryegrass (Lolium multiflorum); assay: Test B pre-/postemergence plant response
Method in brief: as §1

[10] = tested on: eastern black (E.B.) nightshade (Solanum ptycanthum); assay: Test B pre-/postemergence plant response; conditions: Preemergence
Method in brief: as §1

[11] = tested on: pigweed (Amaranthus retroflexus); assay: Test B pre-/postemergence plant response
Method in brief: as §1

[12] = tested on: barnyardgrass (Echinochloa crus-galli); assay: Test B flooded paddy test plant response
Method in brief: (§2)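 Paddy-water application to 2-leaf plants in pots held under 3 cm of flooding; response is a 0–100 visual control rating against controls after 13 to 15 days, and a dash marks a missing result.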

[13] = tested on: rice (Oryza sativa); assay: Test B flooded paddy test plant response
Method in brief: as §2

[14] = 62 g ai/ha, scale 0 to 100, 0 no effect, 100 complete control
[15] = 8 g ai/ha, postemergence, 0-100 scale
[16] = Postemergence, 16 g ai/ha, scale 0 to 100
[17] = Postemergence, 31 g ai/ha, scale 0 to 100, 0 no effect, 100 complete control
[18] = Postemergence, 62 g ai/ha, scale 0 to 100, 0 no effect, 100 complete control
[19] = Preemergence, 16 g ai/ha, scale 0 to 100 (0 no effect, 100 complete control)
[20] = Preemergence, 31 g ai/ha, 0 to 100 scale, 0 no effect, 100 complete control
[21] = Preemergence, 62 g ai/ha, scale 0 to 100
[22] = Preemergence, 8 g ai/ha, scale 0 to 100
[23] = 16 g ai/ha, scale 0 to 100 (0 no effect, 100 complete control)
[24] = 31 g ai/ha, 0 to 100 scale, 0 no effect, 100 complete control
[25] = Flood (flooded paddy test), 62 g ai/ha, scale 0 to 100, 0 no effect, 100 complete control
[26] = Flood (flooded paddy test), 125 g ai/ha, scale 0 to 100, 0 no effect, 100 complete control
[27] = Flood (flooded paddy test), 250 g ai/ha, scale 0 to 100, 0 no effect, 100 complete control
[28] = Flood, 31 g ai/ha, scale 0 to 100
[29] = 16 g ai/ha, postemergence, 0-100 scale
[30] = Postemergence, 31 g ai/ha, scale 0 to 100

Cn1ncc(O)c(-c2nn(-c3ccc(Cl)cc3)cc2Cl)c1=O [Compound 28]
Blackgrass plant response rating [1]: 60
Plant response rating, Blackgrass ([1]; 16 g ai/ha, scale 0 to 100): 70
Plant response rating, Blackgrass ([1]; 31 g ai/ha, scale 0 to 100, 0 no effect, 100 complete control): 95
Plant response rating, Blackgrass [1, 14]: 100
Oat, Wild plant response rating [2, 15]: 45
Plant response rating, Oat, Wild [2, 16]: 80
Plant response rating, Oat, Wild [2, 17]: 95
Plant response rating, Oat, Wild [2, 18]: 98
Plant response rating, Oat, Wild [2, 19]: 50
Plant response rating, Oat, Wild [2, 20]: 70
Plant response rating, Oat, Wild [2, 21]: 90
Oat, Wild plant response rating [2, 22]: 0
Crabgrass, Large plant response rating ([3]; postemergence, 0-100 scale): 60
Plant response rating, Crabgrass, Large [3, 16]: 75
Plant response rating, Crabgrass, Large [3, 17]: 80
Plant response rating, Crabgrass, Large [3, 18]: 98
Plant response rating, Crabgrass, Large [3, 19]: 98
Plant response rating, Crabgrass, Large [3, 20]: 100
Plant response rating, Crabgrass, Large [3, 21]: 100
Crabgrass, Large plant response rating ([3]; Preemergence, scale 0 to 100): 65
Plant response rating, Sunflower [4, 23]: 0
Plant response rating, Sunflower [4, 24]: 0
Plant response rating, Sunflower ([4]; 62 g ai/ha, scale 0 to 100): 0
Sunflower plant response rating ([4]; 8 g ai/ha, scale 0 to 100): 0
Ragweed plant response rating [5, 15]: 0
Plant response rating, Ragweed [5, 16]: 0
Plant response rating, Ragweed [5, 17]: 0
Plant response rating, Ragweed [5, 18]: 0
Plant response rating, Ragweed [5, 19]: 0
Plant response rating, Ragweed [5, 20]: 0
Plant response rating, Ragweed [5, 21]: 0
Ragweed plant response rating [5, 22]: 0
Bromegrass, Downy plant response rating ([6]; postemergence, 0-100 scale): 0
Plant response rating, Bromegrass, Downy [6, 16]: 5
Plant response rating, Bromegrass, Downy [6, 17]: 10
Plant response rating, Bromegrass, Downy [6, 18]: 20
Plant response rating, Bromegrass, Downy [6, 19]: 40
Plant response rating, Bromegrass, Downy [6, 20]: 50
Plant response rating, Bromegrass, Downy [6, 21]: 50
Bromegrass, Downy plant response rating ([6]; Preemergence, scale 0 to 100): 20
Morningglory plant response rating [7, 15]: 0
Plant response rating, Morningglory [7, 16]: 0
Plant response rating, Morningglory [7, 17]: 0
Plant response rating, Morningglory [7, 18]: 0
Plant response rating, Morningglory [7, 19]: 0
Plant response rating, Morningglory [7, 20]: 0
Plant response rating, Morningglory [7, 21]: 0
Morningglory plant response rating [7, 22]: 0
Johnsongrass plant response rating [8, 15]: 20
Plant response rating, Johnsongrass [8, 16]: 65
Plant response rating, Johnsongrass [8, 17]: 75
Plant response rating, Johnsongrass [8, 18]: 98
Plant response rating, Johnsongrass [8, 19]: 85
Plant response rating, Johnsongrass [8, 20]: 98
Plant response rating, Johnsongrass [8, 21]: 100
Johnsongrass plant response rating [8, 22]: 70
Ryegrass, Italian plant response rating [9, 15]: 40
Plant response rating, Ryegrass, Italian [9, 16]: 55
Plant response rating, Ryegrass, Italian [9, 17]: 55
Plant response rating, Ryegrass, Italian [9, 18]: 98
Plant response rating, Ryegrass, Italian [9, 19]: 80
Plant response rating, Ryegrass, Italian [9, 20]: 100
Plant response rating, Ryegrass, Italian [9, 21]: 100
Ryegrass, Italian plant response rating [9, 22]: 0
Plant response rating, Nightshade, E. B. [10, 23]: 0
Plant response rating, Nightshade, E. B. [10, 24]: 0
Plant response rating, Nightshade, E. B. ([10]; 62 g ai/ha, scale 0 to 100): 0
Nightshade, E. B. plant response rating ([10]; 8 g ai/ha, scale 0 to 100): 0
Pigweed plant response rating [11, 15]: 0
Plant response rating, Pigweed [11, 16]: 0
Plant response rating, Pigweed [11, 17]: 0
Plant response rating, Pigweed [11, 18]: 0
Plant response rating, Pigweed [11, 19]: 0
Plant response rating, Pigweed [11, 20]: 0
Plant response rating, Pigweed [11, 21]: 0
Pigweed plant response rating [11, 22]: 0
Plant response rating, Barnyardgrass [12, 25]: 0
Plant response rating, Barnyardgrass [12, 26]: 0
Plant response rating, Barnyardgrass [12, 27]: 30
Plant response rating, Barnyardgrass [12, 28]: 0
Plant response rating, Rice [13, 25]: 0
Plant response rating, Rice [13, 26]: 0
Plant response rating, Rice [13, 27]: 60
Plant response rating, Rice [13, 28]: 0

COCc1cc(-c2ccc(Br)cc2)nn1-c1c(O)cnn(C)c1=O [Compound 68]
Blackgrass plant response rating [1]: 0
Plant response rating, Blackgrass ([1]; 16 g ai/ha, scale 0 to 100): 0
Plant response rating, Blackgrass ([1]; 31 g ai/ha, scale 0 to 100): 50
Plant response rating, Blackgrass [1, 14]: 85
Oat, Wild plant response rating [2, 15]: 0
Oat, Wild plant response rating [2, 29]: 0
Plant response rating, Oat, Wild [2, 30]: 5
Plant response rating, Oat, Wild [2, 18]: 40
Crabgrass, Large plant response rating ([3]; postemergence, 0-100 scale): 20
Plant response rating, Crabgrass, Large [3, 16]: 60
Plant response rating, Crabgrass, Large [3, 30]: 80
Plant response rating, Crabgrass, Large [3, 18]: 85
Ragweed plant response rating [5, 15]: 0
Ragweed plant response rating [5, 29]: 0
Plant response rating, Ragweed [5, 30]: 0
Plant response rating, Ragweed [5, 18]: 0
Bromegrass, Downy plant response rating ([6]; postemergence, 0-100 scale): 0
Plant response rating, Bromegrass, Downy [6, 16]: 0
Plant response rating, Bromegrass, Downy [6, 30]: 0
Plant response rating, Bromegrass, Downy [6, 18]: 0
Morningglory plant response rating [7, 15]: 0
Morningglory plant response rating [7, 29]: 0
Plant response rating, Morningglory [7, 30]: 0
Plant response rating, Morningglory [7, 18]: 0
Johnsongrass plant response rating [8, 15]: 0
Johnsongrass plant response rating [8, 29]: 0
Plant response rating, Johnsongrass [8, 30]: 0
Plant response rating, Johnsongrass [8, 18]: 30
Ryegrass, Italian plant response rating [9, 15]: 0
Ryegrass, Italian plant response rating [9, 29]: 10
Plant response rating, Ryegrass, Italian [9, 30]: 80
Plant response rating, Ryegrass, Italian [9, 18]: 95
Pigweed plant response rating [11, 15]: 0
Pigweed plant response rating [11, 29]: 0
Plant response rating, Pigweed [11, 30]: 0
Plant response rating, Pigweed [11, 18]: 0
Plant response rating, Barnyardgrass [12, 25]: 0
Plant response rating, Barnyardgrass [12, 26]: 0
Plant response rating, Barnyardgrass [12, 27]: 0
Plant response rating, Barnyardgrass [12, 28]: 0
Plant response rating, Rice [13, 25]: 0
Plant response rating, Rice [13, 26]: 0
Plant response rating, Rice [13, 27]: 0
Plant response rating, Rice [13, 28]: 0
